Broadly, the IC50 is the midpoint of a concentration-inhibition curve.

Read-outs that look alike come from different tables or passages of the source.

The values below come from paper PMC5947539, “Cyclometalated iridium(III) complexes as lysosome-targeted photodynamic anticancer and real-time tracking agents” (Chemical Science, 2015).

The test system of one assay is MCF-7 cells. As to the kind of experiment: (Photo)cytotoxicity, MTT assay, MCF-7. Format: cell-based, human. The conditions noted are these: for PI (phototoxicity index): IC50 dark / IC50 light. On the procedure:
(§1) Cell lines and culture conditions
(§2) A549, A549cisR, MCF-7 and LO2 cells were obtained from Experimental Animal Center of Sun Yat-sen University (Guangzhou, China). Cells were maintained in DMEM (Dulbecco’s modified […]
(§3) medium, which contained 10% FBS (fetal bovine serum, Gibco BRL), 100 ȝg/mL streptomycin (Gibco BRL), and 100 U/mL penicillin (Gibco BRL). The cells were cultured in a humidified […]
(§4) In each experiment, cells treated with vehicle control (1% DMSO) were kept as the reference group.
(§5) The cytotoxicity in the dark and phototoxicity of the tested compounds toward A549, A549cisR, MCF-7 and LO2 cell lines was determined by MTT assay.
(§6) For cytotoxicity in the dark, cells cultured in 96-well plates were grown to confluence. The compounds were dissolved in DMSO (1%, v/v), and diluted with fresh media immediately. the cells were incubated with a series of concentrations of the tested compounds for 44 h at 37 °C. 20 ȝL of MTT solution was then added to each well, and the plates were incubated for an additional 4 h. The media was carefully removed, and DMSO was added (150 µL per well) and incubated for 10 min with shaking. The absorbance at 595 nm was measured using a microplate reader (Infinite M200 Pro, Tecan, Männedorf, Switzerland).
(§7) For phototoxicity, the cells were incubated with the tested compounds for 12 h. The media containing the iridium complexes was removed and fresh media without the complexes was added.
(§8) After another 32 h of incubation, MTT was added. The cytotoxicity was determined as described

For another assay, the system named is LO2 cells. As to the kind of experiment: (Photo)cytotoxicity, MTT assay, LO2. Format: cell-based, human. The note with it: for PI (phototoxicity index): IC50 dark / IC50 light. On the procedure: as §1, §2, §3, §4, §5, §6, §7, §8
(In general: Tetrazolium dyes change colour on reduction, which living cells bring about.)

In assay [1] the test system is A549 cells. Put plainly: (Photo)cytotoxicity, MTT assay, A549. The conditions noted are these: for PI (phototoxicity index) / IC50: A549; for PI (phototoxicity index): IC50 dark / IC50 light. It is filed as cell-based, human. The protocol:
as §1, §2, §3, §4, §5, §6, §7, §8

The subject of assay [2] is caspase-3/7 activity in A549 cells. As to the kind of experiment: Caspase-3/7 activity assay (Caspase-Glo). Format: cell-based, human. The note with it: for increase in caspase-3/7 activity: vs control cells in the dark. On the procedure:
(§9) concentrations for 24 h with or without light irradiation. After A549 cells were incubated with 2 for 12 h, the cells were irradiated with a 425 nm LED light array (40 mW cmí2) for 15 min (36 J cmí2).
When necessary, the cells were incubated with NaN3 (10 mM) for 1 h before PDT treatment. The cells were washed twice with PBS gently and fixed with 4% paraformalclehyde for 30 min at room temprature. The cells were washed with PBS twice, and then Hoechst 33342 (5 µg/mL) in PBS was added to the media by gently shaking in the dark for 10 min. The cells were washed with PBS twice and visualized by confocal microscopy (LSM 710, Carl Zeiss, Göttingen, Germany). Emission was collected at 460 ± 20 nm upon excitation at 405 nm.
Caspase-3/7 activity assay
Caspase-3/7 activity was measured using Caspase-Glo® Assay kit (Promega, Madison, WI, USA) according to the manufacturer's instructions. Briefly, cells were cultured in 96-well plates and treated […]
incubated with 2 or cisplatin for 12 h, the cells were irradiated with a 425 nm LED light array (40 mW cmí2) for 15 min (36 J cmí2). 100 µL of Caspase-Glo® 3/7 reagent was added to each well containing 100 µL culture media. The mixture was incubated at room temperature for 1 h and then the luminescence was measured using a microplate reader (Infinite M200 Pro, Tecan, Männedorf, […]
The cells were further treated with 10 ȝM DCF-DA for 20 min at 37 °C in the dark and then then irradiated with a 425 nm LED light array (40 mW cmí2) for 15 min (36 J cmí2). After the treatment, the cells were harvested and washed twice with serum-free RPMI 1640, the fluorescence intensity of DCF in A549 cells was measured by flow cytometry (FACSCaliburTM, Becton Dickinson, Franklin Lakes, NJ, USA). The results were analyzed by FlowJo Software (Tree Star, OR, USA). […]
(§10) concentrations for 12 h and then irradiated with a 425 nm LED light array (40 mW cmí2) for 15 min

The test system of a further assay is A549cisR cells. As to the kind of experiment: (Photo)cytotoxicity, MTT assay, A549cisR. It is filed as cell-based, human. The note with it: for PI (phototoxicity index): IC50 dark / IC50 light. On the procedure:
as §1, §2, §3, §4, §5, §6, §7, §8

For assay [3], the system named is A549 cells. The conditions noted are these: A549, 0.5 μM with light (36 J cm–2).
Procedure: Annexin V/propidium iodide double staining assay
The assay was performed according to the manufacturer's (Sigma Aldrich, USA) protocol. A549 cells
a 425 nm LED light array (40 mW cmí2) at different light doses (12, 24 or 36 J cmí2).
necessary, the cells were incubated with NaN3 (10 mM) for 1 h before PDT treatment. For flow
cytometry analysis, the cells were harvested and re-suspended in 500 ȝL annexin-binding buffer (10
mM HEPES, 140 mM NaCl, 2.5 mM CaCl2, pH 7.4). The cell suspension was stained with 5 ȝL
annexin V and 10 ȝL propidium iodide at room temperature for 15 min in the dark, and then
analyzed immediately by flow cytometry (FACSCaliburTM, Becton Dickinson, NJ, USA). The
resulting dot blots were analyzed by FlowJo Software (Tree Star, OR, USA). For confocal
microscopy analysis, the cells were washed twice with PBS, and then incubated with 500 ȝL annexin-binding buffer supplemented with 5 ȝL annexin V and 10 ȝL propidium iodide at room
temperature for 15 min in the dark. The samples were visualized immediately by confocal
microscopy (LSM 710, Carl Zeiss, Göttingen, Germany). Emission was collected at 530 ± 20 nm
(annexin V) and 620 ± 20 nm (propidium iodide) upon excitation at 488 nm.
The test system of assay [4] is A549 cells. The conditions noted are these: A549, 0.5 μM with light (36 J cm–2), vs control cells treated with light alone. On the procedure: as §9
When necessary, the cells were incubated with NaN3 (10 mM) for 1 h before PDT treatment. The cells were washed twice with PBS gently and fixed with 4% paraformalclehyde for 30 min at room temprature. The cells were washed with PBS twice, and then Hoechst 33342 (5 µg/mL) in PBS was added to the media by gently shaking in the dark for 10 min. The cells were washed with PBS twice and visualized by confocal microscopy (LSM 710, Carl Zeiss, Göttingen, Germany). Emission was collected at 460 ± 20 nm upon excitation at 405 nm. […]
Caspase-3/7 activity was measured using Caspase-Glo® Assay kit (Promega, Madison, WI, USA) according to the manufacturer's instructions. […]
incubated with 2 or cisplatin for 12 h, the cells were irradiated with a 425 nm LED light array (40 mW cmí2) for 15 min (36 J cmí2). […] The mixture was incubated at room temperature for 1 h and then the luminescence was measured using a microplate reader (Infinite M200 Pro, Tecan, Männedorf, […]
The cells were further treated with 10 ȝM DCF-DA for 20 min at 37 °C in the dark and then then irradiated with a 425 nm LED light array (40 mW cmí2) for 15 min (36 J cmí2). […] The results were analyzed by FlowJo Software (Tree Star, OR, USA). […]

For the next assay, the system named is A549 and LO2 cells. The conditions noted are these: 0.5 μM, light 36 J cm–2, annexin V/propidium iodide staining. The protocol:
as §10

Where [5] appears, read: dark, incubated 48 h, read-out: IC50 Dark.
Where [6] appears, read: incubated 12 h then 425 nm LED 15 min (36 J cm–2), read-out: IC50 (light) (converted).
Where [7] appears, read: Homo sapiens, L02, dark, incubated 48 h, read-out: IC50 Dark.
[8] abbreviates: Homo sapiens, L02, incubated 12 h then 425 nm LED 15 min (36 J cm–2), read-out: IC50 (light) (converted).
[9] abbreviates: Homo sapiens, dark, incubated 48 h, read-out: IC50 Dark.
Setting [10] is: Homo sapiens, incubated 12 h then 425 nm LED 15 min (36 J cm–2), read-out: IC50 (light) (converted).

Regarding `N.N.[Cl][Pt][Cl]` [Cisplatin, reference compound], the “PI (phototoxicity index)” value in the assay on MCF-7 cells is listed as 1.1; in the assay on LO2 cells it was 1.0; in the assay with A549 cells [1], 1.0; in the assay with A549cisR cells it was 1.0. The half-inhibitory concentration (IC50) is 31.2 ± 2.7 µM in the assay with LO2 cells (setting [5]); 30.5 µM in the assay with LO2 cells (setting [6]); 23.3 ± 2.6 µM in the assay with A549 cells [1] (setting [5]); 22.6 µM in the assay on A549 cells [1] (setting [6]); 85.5 ± 5.3 µM in the assay on A549cisR cells (setting [5]); 86.1 µM in the assay with A549cisR cells (setting [6]). Further, the “effect of light irradiation on caspase-3/7 activation” value in assay [2] (A549, 425 nm light (36 J cm–2)) was “no effect”.
Consider `c1ccc2c(c1)[nH]c1c(-c3ncc[nH]3)nccc12` [Complex L1, 1-(2-imidazolyl)-β-carboline, reference compound], for which the “PI (phototoxicity index)” value in the assay on MCF-7 cells is reported as 16.3; in the assay on LO2 cells, more than 2.1; in the assay on A549 cells [1], more than 5.7; in the assay with A549cisR cells, 2.2. Further, the IC50 in the assay on LO2 cells (setting [7]) is more than 100 µM; with LO2 cells (setting [8]), 47.4 µM; in the assay on A549 cells [1] (setting [9]) it was more than 100 µM; in the assay with A549 cells [1] (setting [10]), 17.6 µM; in the assay on A549cisR cells (setting [9]) it was 42.6 ± 3.8 µM; with A549cisR cells (setting [10]), 19.7 µM.
`c1ccc2[nH]c(-c3nccc4c3[nH]c3ccccc34)nc2c1` [Complex L2, 1-(2-benzimidazolyl)-β-carboline]: the IC50 with LO2 cells (setting [7]), in the assay with LO2 cells (setting [8]), with A549 cells [1] (setting [9]), in the assay with A549 cells [1] (setting [10]), with A549cisR cells (setting [9]) and with A549cisR cells (setting [10]) was more than 100 µM each time.
Consider Ir2(dfppy)4Cl2 [reference compound], for which the “PI (phototoxicity index)” value in the assay on MCF-7 cells worked out at 5.2; in the assay on LO2 cells, 1.4; in the assay on A549 cells [1], 1.2; in the assay on A549cisR cells it was 1.0. Besides, the IC50 was 29.6 ± 3.1 µM in the assay on LO2 cells (setting [5]); 21.5 µM with LO2 cells (setting [6]); 11.5 ± 1.5 µM with A549 cells [1] (setting [5]); 9.3 µM in the assay on A549 cells [1] (setting [6]); 4.3 ± 0.5 µM in the assay on A549cisR cells (setting [5]); 4.2 µM with A549cisR cells (setting [6]).
Take Ir2(ppy)4Cl2 [reference compound]: the “PI (phototoxicity index)” value worked out at 4.3 with MCF-7 cells, 1.3 in the assay with LO2 cells, 1.7 in the assay with A549 cells [1] and 2.9 with A549cisR cells. For the same compound, the IC50 with LO2 cells (setting [5]) was 28.5 ± 2.4 µM; with LO2 cells (setting [6]), 21.3 µM; in the assay on A549 cells [1] (setting [5]) it was 19.6 ± 2.6 µM; in the assay with A549 cells [1] (setting [6]), 11.4 µM; in the assay with A549cisR cells (setting [5]), 20.2 ± 2.3 µM; with A549cisR cells (setting [6]) it was 7 µM.
In the case of “[Ir(N^C)2(N^N)](PF6) in which N^C = 2-phenylpyridine and N^N = 1-(2-benzimidazolyl)-β-carboline [Complex 2]”, the “PI (phototoxicity index)” value was more than 769 in the assay with MCF-7 cells, more than 833 in the assay on A549 cells [1] and more than 625 in the assay on A549cisR cells. For the same compound, the IC50 in the assay on MCF-7 cells (incubated 12 h then 425 nm LED 15 min (36 J cm-2), read-out: IC50 Light) was 130 ± 20 nM; in the assay on LO2 cells (setting [5]), more than 100 µM; with LO2 cells (setting [6]), 4.4 µM; in the assay on A549 cells [1] (setting [5]) it was not below 100 µM; with A549 cells [1] (setting [6]), 0.12 µM; in the assay with A549cisR cells (setting [5]), more than 100 µM. In addition, in the assay with A549cisR cells (setting [6]), the IC50 is 0.16 µM. Further, the “fold higher phototoxicity against A549 cells than against LO2 cells” value in the assay with A549 cells [1] (light IC50 A549 vs LO2) is listed as “over 36 fold”. Further, the “percentage of apoptotic cells” value in the assay on A549 cells [3] turned out to be 69.7%. The “increase in caspase-3/7 activity” value in assay [2] (A549, 0.5 μM and light (36 J cm–2)) was “approximately 5.7 fold”; in assay [2] (A549, compound alone (dark)), “negligible increase”. The “increase in the mean fluorescence intensity of DCF” value with A549 cells [4] was “ca. 17 fold”. The “selectivity of PDT in A549/LO2 co-culture” value in the assay with A549 and LO2 cells is reported as “high selectivity towards cancer over normal cells”.
